Like-named read-outs stand apart in the source and are kept apart here.
What was measured:
cholesterol absorption = assay: Inhibition of cholesterol absorption in rats fed 1% cholesterol:0.5% cholic acid diet; format: in vivo, male Sprague-Dawley rats; details: po, 336 h, rat, dose .03% of the diet, 2 weeks
In short: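 Compound was mixed into the diet (0.001-0.03%) of male Sprague-Dawley rats, 150-170 g, on a 1% cholesterol/0.5% cholic acid regimen for 2 weeks. At sacrifice, serum cholesterol (enzymatic) and liver neutral-sterol cholesterol were measured; values given as percent of compound-free control rats.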

[1] = molecular target: T1, fatty acyl CoA: cholesterol acyl transferase (ACAT) (Rattus norvegicus, UniProt O70536); assay: Inhibition of fatty acyl CoA:cholesterol acyl transferase (ACAT), rat adrenal enzyme; format: biochemical
T1 construct: The supernatant, containing the microsomal fraction, served as the source of the cholesterol-esterifying enzyme; from tissue; host or cells: rat adrenals, supernatant of 1,000 x g centrifugation containing the microsomal fraction
T1 sequence (O70536 1-545): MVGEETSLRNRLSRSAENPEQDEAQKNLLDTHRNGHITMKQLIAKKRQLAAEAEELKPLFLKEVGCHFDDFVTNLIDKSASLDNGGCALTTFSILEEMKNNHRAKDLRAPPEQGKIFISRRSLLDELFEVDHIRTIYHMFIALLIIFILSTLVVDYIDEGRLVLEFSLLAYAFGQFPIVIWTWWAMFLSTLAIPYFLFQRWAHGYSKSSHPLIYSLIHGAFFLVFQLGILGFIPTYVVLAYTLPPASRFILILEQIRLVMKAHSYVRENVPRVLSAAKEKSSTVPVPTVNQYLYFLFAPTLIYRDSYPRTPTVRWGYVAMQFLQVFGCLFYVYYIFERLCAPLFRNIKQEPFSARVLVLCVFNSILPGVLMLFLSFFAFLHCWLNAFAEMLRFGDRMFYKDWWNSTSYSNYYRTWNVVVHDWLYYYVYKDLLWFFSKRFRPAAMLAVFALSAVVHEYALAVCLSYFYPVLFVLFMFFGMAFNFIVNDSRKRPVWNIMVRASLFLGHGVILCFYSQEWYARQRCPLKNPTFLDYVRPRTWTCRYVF
In short: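 Read-out was scintillation counting of [14C]cholesteryl ester, isolated by TLC, after 10 min at 37° C with [14C]oleoyl CoA. Beforehand, compound (final 5.2 μg/ml in single-concentration tests) was preincubated 10 min at 37° C with BSA and rat adrenal microsomal supernatant in pH 7.4 phosphate. Results given as percent inhibition versus control or IC50 over several concentrations.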

[2] = read-out: LS (liver sterol), percentage of control values
[3] = read-out: SS (serum sterol), percentage of control values
[4] = rat adrenal ACAT, final concentration 5.2 μg/ml, read-out: % Inhibition

Row | inhibition at 5.2 µg/mL [1, 4] | Structure (SMILES) | response vs control in vivo at 0.03 % (cholesterol absorption; [2]) | response vs control in vivo at 0.03 % (cholesterol absorption; [3]) | inhibition at 5.2 µg/mL [1]
1 |  | Cc1cc(Cl)ccc1NC(=O)N(CCC(C)(C)C)Cc1ccc(Cl)cc1 [1-(3,3-Dimethylbutyl)-1-(4-chlorobenzyl)-3-(4-chloro-2-methylphenyl)urea] | 60% | 50% | 90%
2 |  | Cc1cc(NC(=O)N(CCC(C)(C)C)Cc2ccccc2)c(C)cc1Cl [1-(3,3-Dimethylbutyl)-1-(benzyl)-3-(4-chloro-2,5-dimethylphenyl)urea] | 30% | 55% | 90%
3 |  | CC(C)(C)CCN(Cc1ccc(CC(C)(C)C)cc1)C(=O)Nc1c(Cl)cc(Cl)cc1Cl [1-(3,3-Dimethylbutyl)-1-[4-(2,2-dimethylpropyl)benzyl]-3-(2,4,6-trichlorophenyl)urea] | 15% | 32% | 90%
4 |  | CC(C)(C)CCN(Cc1ccc(CC(C)(C)C)cc1)C(=O)Nc1ccc(F)cc1F [1-(3,3-Dimethylbutyl)-1-[4-(2,2-dimethylpropyl)benzyl]-3-(2,4-difluorophenyl)urea] | 19% | 35% | 90%
5 |  | Cc1cc(Cl)cc(C)c1NC(=O)N(CCC(C)(C)C)Cc1ccc(CC(C)(C)C)cc1 [1-(3,3-Dimethylbutyl)-1-[4-(2,2-dimethylpropyl)benzyl]-3-(4-chloro-2,6-dimethylphenyl)urea] | 11% | 31% | 90%
6 |  | Cc1cc(Cl)ccc1NC(=O)N(CCC(C)(C)C)Cc1ccc(CC(C)(C)C)cc1 [1-(3,3-Dimethylbutyl)-1-[4-(2,2-dimethylpropyl)benzyl]-3-(4-chloro-2-methylphenyl)urea] | 20% | 51% | 90%
7 |  | CCCCOc1ccc(CN(CCC(C)(C)C)C(=O)Nc2c(Cl)cc(Cl)cc2Cl)cc1 [1-(3,3-Dimethylbutyl)-1-[4-(n-butoxy)benzyl]-3-(2,4,6-trichlorophenyl)urea] | 20% | 52% | 90%
8 |  | CCCCOc1ccc(CN(CCC(C)(C)C)C(=O)Nc2ccc(F)cc2F)cc1 [1-(3,3-Dimethylbutyl)-1-[4-(n-butoxy)benzyl]-3-(2,4-difluorophenyl)urea] | 32% | 42% | 90%
9 |  | CCCCOc1ccc(CN(CCC(C)(C)C)C(=O)Nc2ccc(Cl)cc2C)cc1 [1-(3,3-Dimethylbutyl)-1-[4-(n-butoxy)benzyl]-3-(4-chloro-2-methylphenyl)urea] | 22% | 61% | 90%
10 |  | CCCCc1ccc(CN(CCC(C)(C)C)C(=O)Nc2c(Cl)cc(Cl)cc2Cl)cc1 [1-(3,3-Dimethylbutyl)-1-[4-(n-butyl)benzyl]-3-(2,4,6-trichlorophenyl)urea] | 13% | 37% | 90%
11 |  | CCCCc1ccc(CN(CCC(C)(C)C)C(=O)Nc2ccc(F)cc2F)cc1 [1-(3,3-Dimethylbutyl)-1-[4-(n-butyl)benzyl]-3-(2,4-difluorophenyl)urea] | 30% | 39% | 90%
12 |  | CCCCc1ccc(CN(CCC(C)(C)C)C(=O)Nc2c(C)cc(Cl)cc2C)cc1 [1-(3,3-Dimethylbutyl)-1-[4-(n-butyl)benzyl]-3-(4-chloro-2,6-dimethylphenyl)urea] | 12% | 28% | 90%
13 | 90.5% | CCCCc1ccc(CN(CCC(C)(C)C)C(=O)Nc2ccc(Cl)cc2C)cc1 [1-(3,3-Dimethylbutyl)-1-[4-(n-butyl)benzyl]-3-(4-chloro-2-methylphenyl)urea] | 13% | 46% | 
14 |  | CC(C)(C)CCN(Cc1ccccc1)C(=O)Nc1ccc(F)cc1F [1-(3,3-Dimethylbutyl)-1-benzyl-3-(2,4-difluorophenyl)urea] | 70% | 71% | 90%
15 |  | Cc1cc(Cl)ccc1NC(=O)N(CCC(C)(C)C)Cc1ccccc1 [1-(3,3-Dimethylbutyl)-1-benzyl-3-(4-chloro-2-methylphenyl)urea] | 51% | 64% | 90%
16 | 92.9% | Cc1ccc(NC(=O)N(Cc2ccc(C)c(C)c2)Cc2ccccc2Cl)c(C)c1 [1-(3,4-Dimethylbenzyl)-1-(2-chlorobenzyl)-3-(2,4-dimethylphenyl)urea] | 15% | 44% | 
17 | 86% | O=C(Nc1cc(Cl)c(Cl)cc1Cl)N(Cc1ccc(Cl)cc1)Cc1cccc2ccccc12 [1-(4-Chlorobenzyl)-1-(1-naphthylmethyl)-3-(2,4,5-trichlorophenyl)urea] | 97% | 84% | 
18 | 77% | O=C(Nc1c(Cl)cc(Cl)cc1Cl)N(Cc1ccc(Cl)cc1)Cc1cccc2ccccc12 [1-(4-Chlorobenzyl)-1-(1-naphthylmethyl)-3-(2,4,6-trichlorophenyl)urea] | 12% | 38% | 
19 | 92% | O=C(Nc1ccc(Cl)cc1Cl)N(Cc1ccc(Cl)cc1)Cc1cccc2ccccc12 [1-(4-Chlorobenzyl)-1-(1-naphthylmethyl)-3-(2,4-dichlorophenyl)urea] | 48% | 50% | 
20 | 84% | O=C(Nc1ccc(F)cc1F)N(Cc1ccc(Cl)cc1)Cc1cccc2ccccc12 [1-(4-Chlorobenzyl)-1-(1-naphthylmethyl)-3-(2,4-difluorophenyl)urea] | 30% | 45% | 
21 | 94% | Cc1cc(Cl)ccc1NC(=O)N(Cc1ccc(Cl)cc1)Cc1cccc2ccccc12 [1-(4-Chlorobenzyl)-1-(1-naphthylmethyl)-3-(2-methyl-4-chlorophenyl)urea] | 17% | 35% | 
22 | 80% | O=C(Nc1cccc(C(F)(F)F)c1)N(Cc1ccc(Cl)cc1)Cc1cccc2ccccc12 [1-(4-Chlorobenzyl)-1-(1-naphthylmethyl)-3-(3-trifluoromethylphenyl)urea] | 92% | 87% | 
23 | 36.3% | Cc1ccc(NC(=O)N(Cc2ccc(-c3ccccc3)cc2)Cc2ccc(Cl)c(Cl)c2)c(C)c1 [1-(4-Phenylbenzyl)-1-(3,4-dichlorobenzyl)-3-(2,4-dimethylphenyl)urea] | 17% | 49% | 
24 | 80% | CCCCCOc1ccc(CN(Cc2ccc(CCCCC)cc2)C(=O)Nc2cc(Cl)c(Cl)cc2Cl)cc1 [1-(4-n-Pentylbenzyl)-1-(4-n-pentyloxybenzyl)-3-(2,4,5-trichlorophenyl)urea] | 92% | 85% | 
25 | 95.5% | CCCCCOc1ccc(CN(Cc2ccc(CCCCC)cc2)C(=O)Nc2c(Cl)cc(Cl)cc2Cl)cc1 [1-(4-n-Pentylbenzyl)-1-(4-n-pentyloxybenzyl)-3-(2,4,6-trichlorophenyl)urea] | 76% | 100% | 
26 | 85% | CCCCCOc1ccc(CN(Cc2ccc(CCCCC)cc2)C(=O)Nc2ccc(Cl)cc2Cl)cc1 [1-(4-n-Pentylbenzyl)-1-(4-n-pentyloxybenzyl)-3-(2,4-dichlorophenyl)urea] | 92% | 91% | 
27 |  | CCCCCOc1ccc(CN(Cc2ccc(CCCCC)cc2)C(=O)Nc2ccc(F)cc2F)cc1 [1-(4-n-Pentylbenzyl)-1-(4-n-pentyloxybenzyl)-3-(2,4-difluorophenyl)urea] | 67% | 55% | 90%
28 |  | CCCCc1ccc(CN(CCCCC(C)(C)C)C(=O)Nc2c(Cl)cc(Cl)cc2Cl)cc1 [1-(5,5-Dimethylhexyl)-1-[4-(n-butyl)benzyl]-3-(2,4,6-trichlorophenyl)urea] | 32% | 45% | 90%
